Test results reported in the NIST ThermoML archive (doi:10.1021/je800110r).
Numbers after ± are expanded uncertainties.

Conditions: 293.15 K, Liquid, Vibrating tube method

CCCCCCCCCC [decane]
Conditions | mass density [kg/m3]
6746 kPa | 735.1 ± 2
6773 kPa | 735 ± 2
6794 kPa | 734.9 ± 2
6816 kPa | 735 ± 2
6848 kPa | 735 ± 2
6876 kPa | 735 ± 2
6897 kPa | 735 ± 2
6922 kPa | 735.2 ± 2
6945 kPa | 735.2 ± 2
6978 kPa | 735.2 ± 2
7001 kPa | 735 ± 2
7028 kPa | 735.2 ± 2
7050 kPa | 735.3 ± 2
7069 kPa | 735.2 ± 2
7097 kPa | 735.2 ± 2
7122 kPa | 735.3 ± 2
7137 kPa | 735.2 ± 2
7168 kPa | 735.4 ± 2
7187 kPa | 735.3 ± 2
7209 kPa | 735.3 ± 2
7232 kPa | 735.3 ± 2
7257 kPa | 735.4 ± 2
7276 kPa | 735.4 ± 2
7295 kPa | 735.4 ± 2
7318 kPa | 735.4 ± 2
7338 kPa | 735.4 ± 2
7360 kPa | 735.4 ± 2
7390 kPa | 735.4 ± 2
7414 kPa | 735.5 ± 2
7438 kPa | 735.6 ± 2
7460 kPa | 735.5 ± 2
7485 kPa | 735.6 ± 2
7500 kPa | 735.6 ± 2
7514 kPa | 735.6 ± 2
7532 kPa | 735.5 ± 2
7544 kPa | 735.6 ± 2
7559 kPa | 735.5 ± 2
7573 kPa | 735.6 ± 2
7586 kPa | 735.6 ± 2
7603 kPa | 735.6 ± 2
7621 kPa | 735.7 ± 2
7636 kPa | 735.6 ± 2
7649 kPa | 735.6 ± 2
7665 kPa | 735.7 ± 2
7685 kPa | 735.6 ± 2
7701 kPa | 735.6 ± 2
7716 kPa | 735.6 ± 2
7732 kPa | 735.7 ± 2
7748 kPa | 735.7 ± 2
7769 kPa | 735.7 ± 2
7789 kPa | 735.7 ± 2
7803 kPa | 735.8 ± 2
7824 kPa | 735.8 ± 2
7837 kPa | 735.8 ± 2
7854 kPa | 735.8 ± 2
7873 kPa | 735.8 ± 2
7889 kPa | 735.8 ± 2
7910 kPa | 735.9 ± 2
7929 kPa | 735.9 ± 2
7943 kPa | 735.9 ± 2
7963 kPa | 735.9 ± 2
7982 kPa | 735.8 ± 2
7997 kPa | 736 ± 2
8013 kPa | 736.1 ± 2
8030 kPa | 735.9 ± 2
8048 kPa | 736 ± 2
8065 kPa | 736 ± 2
8080 kPa | 736 ± 2
8102 kPa | 735.9 ± 2
8114 kPa | 735.9 ± 2
8137 kPa | 736.1 ± 2
8160 kPa | 736 ± 2
8178 kPa | 736.1 ± 2
8196 kPa | 736 ± 2
8213 kPa | 736.1 ± 2
8234 kPa | 736.1 ± 2
8249 kPa | 736.1 ± 2
8265 kPa | 736.1 ± 2
8289 kPa | 736.2 ± 2
8309 kPa | 736.1 ± 2
8324 kPa | 736.2 ± 2
8342 kPa | 736.2 ± 2
8357 kPa | 736.1 ± 2
8373 kPa | 736.2 ± 2
8396 kPa | 736.2 ± 2
8414 kPa | 736.2 ± 2
8435 kPa | 736.2 ± 2
8456 kPa | 736.2 ± 2
8469 kPa | 736.3 ± 2
8490 kPa | 736.2 ± 2
8512 kPa | 736.2 ± 2
8530 kPa | 736.2 ± 2
8552 kPa | 736.3 ± 2
8577 kPa | 736.3 ± 2
8591 kPa | 736.3 ± 2
8615 kPa | 736.4 ± 2
8638 kPa | 736.4 ± 2
8657 kPa | 736.4 ± 2
8679 kPa | 736.3 ± 2
8696 kPa | 736.4 ± 2
8715 kPa | 736.5 ± 2
8735 kPa | 736.4 ± 2
8752 kPa | 736.4 ± 2
8777 kPa | 736.5 ± 2
8801 kPa | 736.5 ± 2
8818 kPa | 736.6 ± 2
8844 kPa | 736.5 ± 2
8867 kPa | 736.5 ± 2
8885 kPa | 736.5 ± 2
8905 kPa | 736.6 ± 2
8925 kPa | 736.5 ± 2
8946 kPa | 736.6 ± 2
8967 kPa | 736.5 ± 2
8985 kPa | 736.6 ± 2
9006 kPa | 736.6 ± 2
9033 kPa | 736.6 ± 2
9054 kPa | 736.6 ± 2
9077 kPa | 736.8 ± 2
9098 kPa | 736.6 ± 2
9119 kPa | 736.7 ± 2
9137 kPa | 736.8 ± 2
9159 kPa | 736.8 ± 2
9178 kPa | 736.8 ± 2
9206 kPa | 736.8 ± 2
9235 kPa | 736.7 ± 2
9251 kPa | 736.8 ± 2
9280 kPa | 736.9 ± 2
9302 kPa | 736.8 ± 2
9324 kPa | 737 ± 2
9350 kPa | 736.9 ± 2
9370 kPa | 736.9 ± 2
9397 kPa | 737 ± 2
9426 kPa | 736.9 ± 2
9446 kPa | 736.9 ± 2
9469 kPa | 736.9 ± 2
9492 kPa | 736.9 ± 2
9512 kPa | 737 ± 2
9533 kPa | 737 ± 2
9562 kPa | 737.1 ± 2
9590 kPa | 737 ± 2
9615 kPa | 737.1 ± 2
9642 kPa | 737.1 ± 2
9666 kPa | 737.1 ± 2
9687 kPa | 737.2 ± 2
9718 kPa | 737.2 ± 2
9743 kPa | 737.1 ± 2
9767 kPa | 737.3 ± 2
9799 kPa | 737.3 ± 2
9821 kPa | 737.3 ± 2
9853 kPa | 737.3 ± 2
9871 kPa | 737.2 ± 2
9897 kPa | 737.3 ± 2
9920 kPa | 737.3 ± 2
9953 kPa | 737.3 ± 2
9986 kPa | 737.4 ± 2
10009 kPa | 737.4 ± 2
10042 kPa | 737.4 ± 2
10073 kPa | 737.4 ± 2
10096 kPa | 737.4 ± 2
10134 kPa | 737.4 ± 2
10165 kPa | 737.6 ± 2
10193 kPa | 737.5 ± 2
10218 kPa | 737.5 ± 2
10248 kPa | 737.6 ± 2
10278 kPa | 737.6 ± 2
10298 kPa | 737.6 ± 2
10313 kPa | 737.6 ± 2
10327 kPa | 737.6 ± 2
10344 kPa | 737.6 ± 2
10358 kPa | 737.7 ± 2
10372 kPa | 737.7 ± 2
10389 kPa | 737.6 ± 2
10406 kPa | 737.7 ± 2
10428 kPa | 737.8 ± 2
10443 kPa | 737.7 ± 2
10461 kPa | 737.8 ± 2
10481 kPa | 737.6 ± 2
10498 kPa | 737.7 ± 2
10516 kPa | 737.8 ± 2
10533 kPa | 737.7 ± 2
10550 kPa | 737.8 ± 2
10570 kPa | 737.8 ± 2
10587 kPa | 737.8 ± 2
10602 kPa | 737.7 ± 2
10625 kPa | 737.8 ± 2
10645 kPa | 737.9 ± 2
10661 kPa | 737.8 ± 2
10679 kPa | 737.8 ± 2
10697 kPa | 737.9 ± 2
10715 kPa | 737.9 ± 2
10735 kPa | 737.9 ± 2
10753 kPa | 737.9 ± 2
10768 kPa | 737.8 ± 2
10787 kPa | 737.9 ± 2
10803 kPa | 737.8 ± 2
10824 kPa | 738 ± 2
10842 kPa | 738 ± 2
10860 kPa | 737.9 ± 2
10879 kPa | 738.1 ± 2
10892 kPa | 738 ± 2
10913 kPa | 738 ± 2
10929 kPa | 737.9 ± 2
10950 kPa | 738.1 ± 2
10966 kPa | 738 ± 2
10985 kPa | 738.1 ± 2
11001 kPa | 738.1 ± 2
11023 kPa | 738.1 ± 2
11045 kPa | 738.2 ± 2
11061 kPa | 738.1 ± 2
11081 kPa | 738.1 ± 2
11094 kPa | 738.1 ± 2
11111 kPa | 738.1 ± 2
11131 kPa | 738.2 ± 2
11156 kPa | 738.3 ± 2
11170 kPa | 738.1 ± 2
11193 kPa | 738.3 ± 2
11210 kPa | 738.3 ± 2
11235 kPa | 738.2 ± 2
11255 kPa | 738.1 ± 2
11281 kPa | 738.2 ± 2
11304 kPa | 738.2 ± 2
11324 kPa | 738.3 ± 2
11348 kPa | 738.3 ± 2
11366 kPa | 738.3 ± 2
11387 kPa | 738.4 ± 2
11408 kPa | 738.3 ± 2
11425 kPa | 738.4 ± 2
11443 kPa | 738.3 ± 2
11460 kPa | 738.4 ± 2
11479 kPa | 738.4 ± 2
11492 kPa | 738.4 ± 2
11511 kPa | 738.5 ± 2
11524 kPa | 738.4 ± 2
11543 kPa | 738.5 ± 2
11560 kPa | 738.4 ± 2
11574 kPa | 738.5 ± 2
11596 kPa | 738.5 ± 2
11613 kPa | 738.5 ± 2
11628 kPa | 738.4 ± 2
11645 kPa | 738.6 ± 2
11664 kPa | 738.5 ± 2
11684 kPa | 738.6 ± 2
11701 kPa | 738.6 ± 2
11721 kPa | 738.6 ± 2
11740 kPa | 738.6 ± 2
11758 kPa | 738.6 ± 2
11775 kPa | 738.6 ± 2
11793 kPa | 738.6 ± 2
11810 kPa | 738.6 ± 2
11828 kPa | 738.7 ± 2
11845 kPa | 738.7 ± 2
11861 kPa | 738.7 ± 2
11888 kPa | 738.6 ± 2
11904 kPa | 738.7 ± 2
11927 kPa | 738.7 ± 2
11950 kPa | 738.8 ± 2
11966 kPa | 738.8 ± 2
11987 kPa | 738.8 ± 2
12010 kPa | 738.7 ± 2
12028 kPa | 738.8 ± 2
12049 kPa | 738.7 ± 2
12070 kPa | 738.9 ± 2
12089 kPa | 738.8 ± 2
12110 kPa | 738.9 ± 2
12131 kPa | 738.8 ± 2
12152 kPa | 738.8 ± 2
12170 kPa | 738.8 ± 2
12187 kPa | 739 ± 2
12201 kPa | 738.9 ± 2
12219 kPa | 738.9 ± 2
12238 kPa | 738.9 ± 2
12263 kPa | 739.2 ± 2
12285 kPa | 739 ± 2
12301 kPa | 739 ± 2
